US10624336B2, “In-vitro embryonic culture medium comprising an inhibitor of cathepsin L and the use of the same in embryo cryopreservation” (BEIJING UNIVERSITY OF AGRICULTURE, priority 2016, dated 2020)
Several values for one entry are separate records, joined by “and”; a condition that tells them apart may be missing. Equal entries are not always repeated. Marks after values point to notes of the source that are not given here.

Tested on: normally hatched blastocysts from mice
Experiment: Thawed recovery rate of normally hatched mouse blastocysts incubated with E-64d before programmed freezing
Assay type: cell-based
Details: for the thawed recovery rate (%): 2 h incubation before freezing, counted after 24-hour recovery, mean ± SD
Description: Female mice with pale pink vulvas were randomized and intraperitoneally injected with pregnant mare serum gonadotrophin (PMSG) at a dosage of 10 IU/mouse. After 48 hours, the female mice were further injected with human chorionic gonadotropin (hCG) at a dosage of 10 IU/mouse, and then were immediately housed in a cage with adult male mice at a ratio of 1:1 overnight for mating. The mice were checked for mating at 8 a.m. next day and injected with anti-PMSG (A-PMSG) at a dosage of 10 IU/mouse once the vaginal suppository was observed. The mice were sacrificed at 9 a.m. on Day 5 after the vaginal suppository was observed. The uteruses on both sides of the mice were removed and flushed with the PBS working solution to obtain normally hatched blastocysts.
The normally hatched blastocysts as obtained (about 100 blastocysts) were rinsed with 100 μl PBS solution for three times and then with 100 μl CZB working solution for another three times. Afterwards, the blastocysts were transferred into drops of the E-64d-CZB working solutions at 0, 0.5, 1, 1.5, 2, 3, 5, and 10 μmol/L, and then incubated in vitro in an incubator at 37° C., 5% CO2 in air, and 100% humidity for 2 hours.
The incubated embryos were washed twice with the PBS working solution, then subjected to PBS removal through a three-step process, and equilibrated for 5 min in a freezing solution (Bioniche, ViGRO™, ETHYLENE GLYCOL FREEZE (with Sucrose), Lot:150206-2P). Afterwards, the embryos were placed in 0.25 ml plastic straws. Then the straws containing the embryos were placed in a control rate freezer, cooled to −5° C. at a rate of 1° C./min, and then equilibrated for 10 min. During equilibration, the straws containing the embryos were clamped with pre-cooled forceps at the upper end for 3-5 seconds, thereby the freezing solution forming ice crystals, that is to say, ice seeding was completed. The straws containing the embryos were equilibrated for another 10 minutes, and then cooled down to −35° C. at a rate of 0.3° C./min. Subsequently, the frozen straws were placed in liquid nitrogen.
During thawing, the frozen straws were removed from the liquid nitrogen, gently shaken at room temperature for 5-10 seconds, placed in water at 35° C. for 10-15 seconds, and then removed from the water. The plugs at both ends of the straws were cut off, and then the embryos in the straws were placed in watch glasses, and subjected to the removal of the freezing solution through a three-step process. After recovery by thawing, the embryos were placed into drops of equilibrated fresh CZB for 24-hour recovery. After 24 hours, the thawed recovery rate was counted.
The three-step process for PBS removal as mentioned above was specifically as follows. Before the embryos were immersed in the freezing solution and then placed in straws for freezing, they were washed with 100 μl of the drops of the following mixed solutions sequentially (3-5 min for each mixed solution): the freezing solution ⅓+PBS ⅔, the freezing solution ½+PBS ½, and the freezing solution ⅔+PBS ⅓.
The three-step process for the removal of the freezing solution as mentioned above was specifically as follows. The embryos were washed with 100 μl of the drops of the following mixed solutions sequentially (3-5 min for each mixed solution): the freezing solution ⅔+PBS ⅓, the freezing solution ½+PBS ½, and the freezing solution ⅓+PBS ⅔.
All the experimental data was subjected to Chi-square analysis by SPSS 21.0 statistical software.

## CCOC(=O)[C@H]1O[C@@H]1C(=O)N[C@@H](CC(C)C)C(=O)NCCC(C)C [E-64d, ethyl (2S,3S)-3-[[(2S)-4-methyl-1-(3-methylbutylamino)-1-oxopentan-2-yl]carbamoyl]oxirane-2-carboxylate]
E-64d 0.5 μmol/L in CZB medium
  the thawed recovery rate (%): 75.35 ± 3.51^b %
E-64d 1 μmol/L in CZB medium
  the thawed recovery rate (%): 80.67 ± 5.40^Aa %
E-64d 1.5 μmol/L in CZB medium
  the thawed recovery rate (%): 79.45 ± 4.28^Aa %
E-64d 2 μmol/L in CZB medium
  the thawed recovery rate (%): 78.65 ± 2.56^b %
E-64d 3 μmol/L in CZB medium
  the thawed recovery rate (%): 76.26 ± 5.32^b %
E-64d 5 μmol/L
  thawed recovery rate compared with the control (in words): nearly comparable to that in absence of the inhibitor
E-64d 5 μmol/L in CZB medium
  the thawed recovery rate (%): 72.64 ± 2.13^B %
E-64d 10 μmol/L
  decrease of the thawed recovery rate as compared with the control: about 15%
E-64d 10 μmol/L in CZB medium
  the thawed recovery rate (%): 62.58% and 62.58 ± 3.72^B %
E-64d 0.5-3 μmol/L
  thawed recovery rate compared with the control (in words): improved to different extents as compared with the control
E-64d 1 or 1.5 μmol/L
  improvement of the thawed recovery rate as compared with the control: about 10%
